Tests used:
CTFα = assay: APP carboxy-terminal fragment αCTF by Western blot in SY5Y-APP695WT cells; type: cell-based, human; details: CTFα increase compared to chloroquine ([CTF]compound/[CTF]CQ) at 3 μM; mean of at least three experiments
Description: Antibodies. Primary antibodies used in this study for western-blot analysis included a homemade rabbit antiserum against the last 17 amino acids of human APP protein sequence, named APP-Cter-C17 (1/5000 in TBS-M). Anti-β-actin (1/10 000 in TBS-M) was obtained from Sigma. Anti-LC3B (1/2000 in TBS-BSA) and anti-p62/SQSTM1 (1/2000 in TBS-M) antibodies were purchased from Cell Signaling Technology. Secondary antibodies (peroxidase-labeled goat anti-rabbit IgG, 1/5000 or peroxidase-labeled horse anti-mouse IgG, 1/50000 in TBS-T) were obtained from Vector Laboratories.
Cell culture and treatment. The human neuroblastoma cell line SY5Y-APP^695WT was maintained in Dulbecco's modified Eagle medium (DMEM, high glucose, pyruvate—GIBCO by Life Technologies) supplemented with 10% foetal bovine serum, 2 mM L-glutamine, 1 mM non-essential amino acids and penicillin/streptomycin (GIBCO by Life Technologies) at 37° C. in a 5% CO2 humidified incubator. SY5Y-APP^695WT cells were maintained in 75 cm^2 culture flasks (Falcon) with supplemented DMEM medium until they reached 80% of confluence 24 h before treatment.
For drug treatment, cells were plated at a rate of 5·10^5 cells per well into 12-well plates (Falcon) and cultured with 1 mL supplemented DMEM cell medium for 24 h before drug exposure. The following day, cell medium was replaced with fresh medium containing drugs diluted at the indicated concentrations. Cells were treated for 24 h. At the end of treatments, the cell medium was collected and kept at −80° C. until use for dosage. Then, cells were rinsed once with PBS and extracted in 100 μL of Laemmli buffer (10 mM Tris, 20% glycerol and 2% Sodium dodecyl sulfate) using a cell-scraper. The cell lysate was further sonicated (30 pulses of 0.5 s, 60 Hz) for 5 min. Total protein concentration was determined using the Pierce BCA Protein Assay Kit (Thermo scientific) according to the manufacturer's instructions. Samples were stored at −80° C. until analysis.
Western Blot Analysis. Cell protein lysates were prepared for western-blot analysis by diluting the sample with 1 volume of NuPAGE® lithium dodecyl sulfate (LDS) 2× sample buffer supplemented with 20% NuPAGE® sample reducing agents (Invitrogen). Samples were heat 10 min at 100° C. 10 μg of total proteins per well were loaded onto a precast 4-12% Criterion XT Bis-Tris polyacrylamide gel (Bio-Rad) and electrophoresis was achieved after applying a tension of 150 V during 90 min using a Criterion electrophoresis Cell with the NuPAGE® MOPS SDS running buffer (1×). Proteins were transferred to a nitrocellulose membrane of […] pore size (G&E Healthcare) using the Criterion blotting system and applying a tension of 100 V for 45 min. To resolve proteins of low molecular weights such as carboxy-terminal fragments of APP, 12% Criterion XT Bis-Tris polyacrylamide gels (Bio-Rad) were used and electrophoresis was performed during 70 min at 150 V in a NuPAGE® MES SDS running buffer (1×). Proteins were transferred to a nitrocellulose membrane of 0.2 μm pore size (G&E Healthcare) at 100 V for 40 min. Molecular weights calibration was achieved using molecular weight markers (Novex and Magic Marks, Life Technologies). Protein transfer and quality were determined by a reversible Ponceau Red coloration (0.2% Xylidine Ponceau Red and 3% Trichloroacetic acid). Membranes were then blocked in 25 mM Tris-HCl pH 8.0, 150 mM NaCl, 0.1% Tween-20 (v/v) (TBS-T) and 5% (w/v) of skimmed milk (TBS-M) or 5% (w/v) of bovine serum albumin (TBS-BSA) depending on the antibody during 1 h. Membrane was rinsed three-times 10 min in TBS-T before incubation with the primary antibody overnight at 4° C. Membrane was rinsed 3 times 10 min with TBS-T and then incubated with the secondary antibody for 45 min at room temperature (RT). […] Quantifications of protein expression levels were performed with ImageJ Software (NIH). […]

Tau = Tau phosphorylation by Western-blotting in hippocampus and cortex of ThyTau22 mice; type: in vivo; details: one month treatment; for phosphorylation of Tau (overall): hippocampus and cortex
Description: (§1) Thy-Tau22 transgenic colonies (C57Bl/6J genetic background) were obtained by crossing heterozygous males C57Bl/6J with WT females. All animals were housed in a pathogen-free facility at 5 to 6 animals per cage (Techniplast Cages 1284L), with ad libitum access to food and water in a 12/12-hour light-dark cycle and maintained under a constant temperature of 22° C. For treatment, animals were randomly distributed and compound 30 or 31 was provided in the drinking water at a final concentration of 1 mg/kg, ie […] for drinking solutions taking into account an average weight of 25 g/mouse drinking 4 mL/day. […] Food consumption and bodyweight were also assessed. In WT animals, a pilot study of drug treatment was performed for one month to establish the innocuousness of compound 30 and 31 treatments. Thy-Tau22 females were treated for 1 months, starting at 6 months of age.
Hyperphosphorylation and phosphorylation levels of Tau. Tau expression, phosphorylation and hyperphosphorylation in the hippocampus and in the cortex were investigated by Western-blotting (FIGS. 5 and 6). The mice were euthanized by beheading and their brain was dissected and was put for few seconds in an isopropanol solution for post-mortem conservation. The samples were sonicated with a Tris-Sucrose Buffer during 30s and were prepared for Western-blot analysis by adding 1 volume of NuPage NuPAGER©LDS 2× sample buffer supplemented with 20% NuPAGER© sample reducing agents (Invitrogen). Samples were heated 10 min at 70° C. 8 μg of proteins per well were loaded onto precast 12% Criterion XT Bis-Tris polyacrylamide 26 wells gels (Bio-Rad) and electrophoresis was achieved by applying a tension of 200V during 60 min using a Criterion electrophoresis Cell with the NuPAGER©MOPS SDS running buffer (1×). Proteins were transferred to a nitrocellulose membrane of […] pore size (G&E Healthcare) using the Criterion blotting system by applying a tension of 100 V for 40 min. Molecular weights calibration was achieved using molecular weight markers (Novex and Magic Marks, Life Technologies). Protein transfer and quality were determined by a reversible Ponceau Red coloration (0.2% Xylidine Ponceau Red and 3% Trichloroacetic acid). Membranes were then blocked in 25 mM Tris-HCl pH 8.0, 150 mM NaCl, 0.1% Tween-20 (v/v) (TBS-T) and 5% (w/v) of skimmed milk (TBS-M) or 5% (w/v) of bovine serum albumin (TBS-BSA) depending on the antibody during 1 hour. […] Quantifications of protein expression levels were performed with ImageQuantTL Software. The results obtained with the quantification of the treated samples were divided by the results obtained with the quantification of the housekeeping gene (GAPDH) in order to check if the amount of proteins was homogeneous in each well. […]

[1] = Stability of aqueous drinking solutions; type: physicochemical
Description: as §1

SMILES	CTFα vs CQ (3 μM) (CTFα)	Tau phosphorylation sites in the cortex (Tau; Western-blot)	Tau phosphorylation sites in the hippocampus (Tau; Western-blot)	phosphorylation of Tau (overall) (Tau)	stability of aqueous solutions [1]
CN(C)Cc1ccccc1-c1ccc(NCCCN2CCCCC2)c(OCCC2CCCCC2)c1 [Compound 31, 3-(2-cyclohexylethoxy)-2′-((dimethylamino)methyl)-N-(3-(piperidin-1-yl)propyl)-[1,1′-biphenyl]-4-amine]	0.1	decreased significantly the p422, AT100, p396 and p262 phosphorylation sites	p422 and p262 phosphorylation sites were also significantly reduced	decreased the phosphorylation of Tau in the hippocampus and in the cortex	stable during more than one week
CN(C)Cc1ccccc1-c1ccc(NCCCN2CCCCC2)c(OCCN2CCCCC2)c1 [Compound 30, 4-(2-[(Dimethylamino)methyl]phenyl)-2-[2-(piperidin-1-yl)ethoxy]-N-[3-(piperidin-1-yl)propyl]aniline]	6.4	–	–	showed less effect on Tau phosphorylation	stable during more than one week

— patent publication US20210230131A1, “POLYAMINO BIARYL COMPOUNDS AND THEIR USE” (INSERM (INSTITUT NATIONAL DE LA SANTÉ ET DE LA RECHERCHE …, priority 2018, published 2021)
